The values below are quoted from earlier work in patent US20200061085A1, “COMPOSITION FOR TREATMENT, INHIBITION AND ATTENUATION OF MELANOMA VIRUS AND PREVENTION OF SKIN CANCERS” (priority 2018, published 2020).

The conditions of this series: STS given exogenously, 90 years of cumulative uses (renal, cyanide, eclampsia).

With sodium thiosulfate [STS], the fatalities entry is recorded as “no fatalities”.
